# According to PMC8580996, “2-Oxoglutarate derivatives can selectively enhance or inhibit the activity of human oxygenases” (Nature Communications, 2021):
# Values joined by “and” are separate entries in the source; they are usually repeats but may differ in a detail not shown here. Equal entries are not always repeated.
# How the values were obtained:
# AspH = target: T1, AspH (Homo sapiens, UniProt Q12797); parameters: method as in PMID 34163896; conditions: hFX-CP101–119 substrate, 330 μM 2OG or 2OG derivative, t = 15 min; cited from earlier work
# T1 construct: the tetratricopeptide repeat domain (His6-AspH315-758), was produced and purified as previously reported; made in house
# T1 sequence (Q12797 315-758): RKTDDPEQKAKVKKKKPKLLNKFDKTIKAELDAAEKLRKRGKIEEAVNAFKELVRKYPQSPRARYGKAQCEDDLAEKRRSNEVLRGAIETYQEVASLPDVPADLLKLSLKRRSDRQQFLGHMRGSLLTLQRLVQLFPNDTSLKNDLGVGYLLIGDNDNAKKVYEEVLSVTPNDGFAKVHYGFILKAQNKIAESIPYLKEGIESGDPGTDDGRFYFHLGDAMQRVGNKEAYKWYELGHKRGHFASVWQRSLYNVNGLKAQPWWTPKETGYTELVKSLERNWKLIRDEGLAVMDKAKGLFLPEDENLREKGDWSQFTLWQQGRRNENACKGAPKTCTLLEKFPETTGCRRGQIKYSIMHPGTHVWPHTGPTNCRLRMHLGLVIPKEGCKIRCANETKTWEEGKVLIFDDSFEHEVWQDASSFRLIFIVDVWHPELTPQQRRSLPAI
# FIH = FIH (Homo sapiens, UniProt Q9NWT6); assay: FIH steady-state kinetic parameters (SPE-MS, initial hydroxylation rates); assay type: biochemical; parameters: slope of initial reaction rate: unit not given here
# Protocol: Final 2OG/2OG derivative concentrations are given in Supplementary Figs. 5 and 6. Reactions were monitored with a rate of ~1 sample/40 s using the same SPE-MS configuration as described above. Data were analyzed as described above and the slopes of the initial reaction rates (Supplementary Figs. 5 and 6) fitted to a Michaelis–Menten plot using non-linear regression (GraphPad Prism 5). […]
# determine kinetic parameters for 2OG derivatives (continues on the following page). Maximum velocities (vapp ) and Michaelis constants (Kapp) of FIH were determined in independent triplicates for 2OG and the 2OG […]
# SPE-MS as described in the Methods section. […]
# acid (LAA), and 20 μM ammonium iron(II) sulfate hexahydrate (FAS, (NH4)2Fe(SO4)2·6H2O) in buffer (50 mM […]
# Tris, 50 mM NaCl, pH 7.5, 20° C). […]
# data are provided as a Source Data file. […]
# concentrations of 2OG; (b) hydroxylation rates used to determine kinetic parameters of FIH for 2OG; (c) time […]
# 3-methyl-2OG (1); (d) hydroxylation rates used to determine kinetic parameters of FIH for 1; (e) time course of […]
# 2OG (12); (f) hydroxylation rates used to determine kinetic parameters of FIH for 12; (g) time course of the FIH- […]
# (h) hydroxylation rates used to determine kinetic parameters of FIH for 14; (i) time course of the FIH-catalyzed […]
# (carboxycarbonyl)cyclopentane-1-carboxylic acid (22); (j) hydroxylation rates used to determine kinetic parameters of FIH for 22.
# Supplementary Figure 6. Hydroxylation rates of FIH-catalyzed CA1-20 hydroxylations used to determine kinetic parameters for 2OG derivatives (continues on the following page). Maximum velocities (vapp ) and […]
# ammonium iron(II) sulfate hexahydrate (FAS, (NH4)2Fe(SO4)2·6H2O) in buffer (50 mM Tris, 50 mM NaCl, pH […]
# Source data are provided as a Source […]
# of 2OG; (b) hydroxylation rates used to determine kinetic parameters of FIH for 2OG; (c) time course of the FIH-catalyzed hydroxylation reaction of the CA1-20 peptide for the shown concentrations of 3-methyl-2OG (1); (d) hydroxylation rates used to determine kinetic parameters of FIH for 1; (e) time course of the FIH -catalyzed hydroxylation reaction of the CA 1-20 peptide for the shown concentrations of 4 -methyl-2OG (12); (f) hydroxylation rates used to determine kinetic parameters of FIH for 12; (g) time course of the FIH-catalyzed hydroxylation reaction of the CA1-20 peptide for the shown concentrations of 4-ethyl-2OG (14); (h) hydroxylation rates used to determine kinetic parameters of FIH for 14; (i) time course of the FIH-catalyzed hydroxylation reaction of the CA1-20 peptide for the shown concentrations of 3-(carboxycarbonyl)cyclopentane-1-carboxylic acid (22); (j) hydroxylation rates used to determine kinetic parameters of FIH for 22.
# Sequence of FIH (Q9NWT6 whole entry): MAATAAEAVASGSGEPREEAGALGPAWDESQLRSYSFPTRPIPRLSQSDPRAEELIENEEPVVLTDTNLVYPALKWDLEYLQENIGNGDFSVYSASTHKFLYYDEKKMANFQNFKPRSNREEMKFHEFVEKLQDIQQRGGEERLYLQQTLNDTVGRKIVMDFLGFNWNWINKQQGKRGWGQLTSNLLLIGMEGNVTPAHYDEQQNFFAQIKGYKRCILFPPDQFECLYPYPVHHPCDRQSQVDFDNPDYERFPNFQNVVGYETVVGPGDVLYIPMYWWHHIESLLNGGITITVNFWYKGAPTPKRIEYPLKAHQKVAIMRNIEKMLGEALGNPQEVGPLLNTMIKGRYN
structure (smiles),measurement,setting,value
"CC(CC(=O)C(=O)O)C(=O)O (centres unmarked) [compound 12, 4-methyl-2OG]","AspH activity, %-substrate conversion",AspH,~10%
same,SPE-MS determined concentration of hydroxylated HIF-1a peptide,"FIH; 0.25 uM compound 12, time 0.699833 min",0.04437 µM and 0.04741 µM and 0.03831 µM
same,SPE-MS determined concentration of hydroxylated HIF-1a peptide,"FIH; 0.25 uM compound 12, time 2.098 min",0.08198 µM and 0.1152 µM and 0.1017 µM
same,SPE-MS determined concentration of hydroxylated HIF-1a peptide,"FIH; 0.5 uM compound 12, time 0.699833 min",0.06422 µM and 0.08062 µM and 0.07548 µM
same,SPE-MS determined concentration of hydroxylated HIF-1a peptide,"FIH; 0.5 uM compound 12, time 2.098 min",0.1727 µM and 0.153 µM and 0.1556 µM
same,SPE-MS determined concentration of hydroxylated HIF-1a peptide,"FIH; 0.5 uM compound 12, time 2.797 min",0.211 µM
same,SPE-MS determined concentration of hydroxylated HIF-1a peptide,"FIH; 1 uM compound 12, time 0.699833 min",0.1124 µM and 0.1213 µM and 0.1053 µM
same,SPE-MS determined concentration of hydroxylated HIF-1a peptide,"FIH; 1 uM compound 12, time 2.098 min",0.2072 µM and 0.2617 µM and 0.2659 µM
same,SPE-MS determined concentration of hydroxylated HIF-1a peptide,"FIH; 1 uM compound 12, time 2.797 min",0.2567 µM and 0.3212 µM and 0.319 µM
same,SPE-MS determined concentration of hydroxylated HIF-1a peptide,"FIH; 2 uM compound 12, time 0.699833 min",0.1658 µM and 0.1554 µM and 0.162 µM
same,SPE-MS determined concentration of hydroxylated HIF-1a peptide,"FIH; 2 uM compound 12, time 2.098 min",0.3451 µM and 0.3558 µM and 0.3835 µM
same,SPE-MS determined concentration of hydroxylated HIF-1a peptide,"FIH; 2 uM compound 12, time 2.797 min",0.4027 µM and 0.4334 µM and 0.458 µM
same,SPE-MS determined concentration of hydroxylated HIF-1a peptide,"FIH; 4 uM compound 12, time 0.699833 min",0.2736 µM and 0.2242 µM and 0.2062 µM
same,SPE-MS determined concentration of hydroxylated HIF-1a peptide,"FIH; 4 uM compound 12, time 2.098 min",0.6118 µM and 0.4979 µM and 0.4845 µM
same,SPE-MS determined concentration of hydroxylated HIF-1a peptide,"FIH; 4 uM compound 12, time 2.797 min",0.7774 µM and 0.6268 µM and 0.6241 µM
same,SPE-MS determined concentration of hydroxylated HIF-1a peptide,"FIH; 8 uM compound 12, time 0 min",0.06164 µM and 0.06905 µM and 0.05066 µM
same,SPE-MS determined concentration of hydroxylated HIF-1a peptide,"FIH; 8 uM compound 12, time 0.699833 min",0.2593 µM and 0.272 µM and 0.2286 µM
same,SPE-MS determined concentration of hydroxylated HIF-1a peptide,"FIH; 8 uM compound 12, time 2.098 min",0.6058 µM and 0.6256 µM and 0.5278 µM
same,SPE-MS determined concentration of hydroxylated HIF-1a peptide,"FIH; 8 uM compound 12, time 2.797 min",0.7712 µM and 0.7937 µM and 0.6846 µM
same,SPE-MS determined concentration of hydroxylated HIF-1a peptide,"FIH; 16 uM compound 12, time 0 min",0.09407 µM and 0.05485 µM and 0.06025 µM
same,SPE-MS determined concentration of hydroxylated HIF-1a peptide,"FIH; 16 uM compound 12, time 0.699833 min",0.2985 µM and 0.2562 µM and 0.2621 µM
same,SPE-MS determined concentration of hydroxylated HIF-1a peptide,"FIH; 16 uM compound 12, time 2.098 min",0.6815 µM and 0.5982 µM and 0.6264 µM
same,SPE-MS determined concentration of hydroxylated HIF-1a peptide,"FIH; 16 uM compound 12, time 2.797 min",0.848 µM and 0.7909 µM and 0.7891 µM
same,SPE-MS determined concentration of hydroxylated HIF-1a peptide,"FIH; 32 uM compound 12, time 0 min",0.0933 µM and 0.07278 µM and 0.06334 µM
same,SPE-MS determined concentration of hydroxylated HIF-1a peptide,"FIH; 32 uM compound 12, time 0.699833 min",0.2746 µM and 0.2712 µM and 0.2731 µM
same,SPE-MS determined concentration of hydroxylated HIF-1a peptide,"FIH; 32 uM compound 12, time 2.098 min",0.594 µM and 0.6472 µM and 0.6437 µM
same,SPE-MS determined concentration of hydroxylated HIF-1a peptide,"FIH; 32 uM compound 12, time 2.797 min",0.7489 µM and 0.8116 µM and 0.8049 µM
same,slope of initial reaction rate,"FIH; CA1-20, 0.25 μM 12",0.003176 and 0.003306
same,slope of initial reaction rate,"FIH; CA1-20, 0.5 μM 12",0.006776 and 0.007676 and 0.008102
same,slope of initial reaction rate,"FIH; CA1-20, 1 μM 12",0.01054 and 0.007937 and 0.01116
same,slope of initial reaction rate,"FIH; CA1-20, 2 μM 12",0.01217 and 0.0142 and 0.01263
same,slope of initial reaction rate,"FIH; CA1-20, 4 μM 12",0.01597 and 0.01096 and 0.0129
same,slope of initial reaction rate,"FIH; CA1-20, 8 μM 12",0.01648 and 0.01721 and 0.01973
same,slope of initial reaction rate,"FIH; HIF-1a788-822, 0.25 μM 12",0.000487 and 0.000839 and 0.000746
same,slope of initial reaction rate,"FIH; HIF-1a788-822, 0.5 μM 12",0.000918 and 0.001031 and 0.00127
same,slope of initial reaction rate,"FIH; HIF-1a788-822, 1 μM 12",0.001321 and 0.001828 and 0.001913
same,slope of initial reaction rate,"FIH; HIF-1a788-822, 2 μM 12",0.00207 and 0.002424 and 0.002687
same,slope of initial reaction rate,"FIH; HIF-1a788-822, 4 μM 12",0.004223 and 0.003389 and 0.00353
same,slope of initial reaction rate,"FIH; HIF-1a788-822, 8 μM 12",0.004209 and 0.004298 and 0.003737
same,slope of initial reaction rate,"FIH; HIF-1a788-822, 16 μM 12",0.004508 and 0.004326 and 0.004345
same,slope of initial reaction rate,"FIH; HIF-1a788-822, 32 μM 12",0.003886 and 0.004421 and 0.004419
